Measurements from US20210253572A1, “IMIDAZO[1,2-B]PYRIDAZINES AS TRK INHIBITORS” (BenevolentAl Bio Limited, priority 2018, published 2021).
pIC50: −log10 of the molar value.

What was measured:
Assay type in all cases: biochemical
[1] = target: T1, TrkC (Homo sapiens, UniProt Q16288); assay: HTRF KinEASE kinase assay, recombinant Human TRK enzyme, TrkC (NTRK3); settings: NTRK3 10 nM, read-out: TrkC Enz
T1 construct: purchased Invitrogen
Protocol: (§1) A suitable assay for determining the Trk inhibition activity of a compound is detailed herein below.
(§2) To determine the IC50 of small molecule compounds for the Human TRK receptors, HTRF® KinEASE™ kinase kits from Cisbio were used. Assays were carried out in low volume, black 384-well plates.
(§3) Recombinant Human TRK enzymes (Invitrogen) were incubated in the presence or absence of the compound (11-point dose response with FAC as 10 μM) for 30 minutes at 23° C. Kinase reaction was started by addition of ATP to a mixture containing the enzyme (NTRK1-4 nM, NTRK2-1 nM, NTRK3-10 nM) and substrate (1 μM). Kinase reaction was allowed to carry on for 10 to 45 minutes at 23° C. after which it was stopped by addition of the detection mix (supplied by vendor) containing EDTA, TK-Ab-labelled with Eu^3+-cryptate (1:200 dilutions) and Streptavidin-XL665 (250 nM). Assay plates were incubated in this detection mix for 60 minutes at 23° C. The resulting TR-FRET signal, calculated as the fluorescence ratio at 665/620 nm, was read on an Envision and was proportional to the level of phosphorylation of the peptide in the presence or absence of the compound. The uniformity of the plates were assured with Z′ value [1−{3*(SDHPE+SDZPE)/(ZPE−HPE)}]. The percent (%) effect i.e. Inhibition of compound was calculated in comparison to the signal in the positive (HPE) and negative control (ZPE) wells within each assay plate. The endpoint value % Inhibition for the Standard compound was evaluated in each experiment as a quality control measure. IC50 was determined by plotting compound inhibition at respective dose in Graphpad prism5 using four parameter logistic curve fit.

[2] = target: T2, TrkA (Homo sapiens, UniProt P04629); assay: HTRF KinEASE kinase assay, recombinant Human TRK enzyme, TrkA (NTRK1); settings: NTRK1 4 nM, read-out: TrkA Enz
T2 construct: purchased Invitrogen
Protocol: as §1, §2, §3

[3] = target: T3, TrkB (Homo sapiens, UniProt Q16620); assay: HTRF KinEASE kinase assay, recombinant Human TRK enzyme, TrkB (NTRK2); settings: NTRK2 1 nM, read-out: TrkB Enz
T3 construct: purchased Invitrogen
Protocol: as §1, §2, §3

T3 sequence (Q16620 32-822): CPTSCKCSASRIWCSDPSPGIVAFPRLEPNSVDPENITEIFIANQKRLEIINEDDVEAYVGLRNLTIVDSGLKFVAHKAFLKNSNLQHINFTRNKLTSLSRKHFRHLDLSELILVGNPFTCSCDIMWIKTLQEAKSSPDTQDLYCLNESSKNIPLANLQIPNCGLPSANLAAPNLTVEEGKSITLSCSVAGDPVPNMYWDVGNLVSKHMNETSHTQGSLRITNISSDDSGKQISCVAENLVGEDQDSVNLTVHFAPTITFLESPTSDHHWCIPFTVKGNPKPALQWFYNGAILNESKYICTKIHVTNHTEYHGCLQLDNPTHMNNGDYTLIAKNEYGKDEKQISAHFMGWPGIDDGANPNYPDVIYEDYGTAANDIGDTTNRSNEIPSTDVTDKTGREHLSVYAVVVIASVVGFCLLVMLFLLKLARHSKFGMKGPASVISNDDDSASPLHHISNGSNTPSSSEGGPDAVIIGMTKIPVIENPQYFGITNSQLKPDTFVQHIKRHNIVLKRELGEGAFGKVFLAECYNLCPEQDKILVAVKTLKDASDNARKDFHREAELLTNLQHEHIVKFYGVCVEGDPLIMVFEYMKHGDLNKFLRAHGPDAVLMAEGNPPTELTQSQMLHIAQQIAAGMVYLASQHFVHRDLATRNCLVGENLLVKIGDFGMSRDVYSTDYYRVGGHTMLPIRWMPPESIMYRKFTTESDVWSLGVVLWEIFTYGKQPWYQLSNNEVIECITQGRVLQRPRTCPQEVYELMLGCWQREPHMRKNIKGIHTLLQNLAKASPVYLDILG
T2 sequence (P04629 33-796): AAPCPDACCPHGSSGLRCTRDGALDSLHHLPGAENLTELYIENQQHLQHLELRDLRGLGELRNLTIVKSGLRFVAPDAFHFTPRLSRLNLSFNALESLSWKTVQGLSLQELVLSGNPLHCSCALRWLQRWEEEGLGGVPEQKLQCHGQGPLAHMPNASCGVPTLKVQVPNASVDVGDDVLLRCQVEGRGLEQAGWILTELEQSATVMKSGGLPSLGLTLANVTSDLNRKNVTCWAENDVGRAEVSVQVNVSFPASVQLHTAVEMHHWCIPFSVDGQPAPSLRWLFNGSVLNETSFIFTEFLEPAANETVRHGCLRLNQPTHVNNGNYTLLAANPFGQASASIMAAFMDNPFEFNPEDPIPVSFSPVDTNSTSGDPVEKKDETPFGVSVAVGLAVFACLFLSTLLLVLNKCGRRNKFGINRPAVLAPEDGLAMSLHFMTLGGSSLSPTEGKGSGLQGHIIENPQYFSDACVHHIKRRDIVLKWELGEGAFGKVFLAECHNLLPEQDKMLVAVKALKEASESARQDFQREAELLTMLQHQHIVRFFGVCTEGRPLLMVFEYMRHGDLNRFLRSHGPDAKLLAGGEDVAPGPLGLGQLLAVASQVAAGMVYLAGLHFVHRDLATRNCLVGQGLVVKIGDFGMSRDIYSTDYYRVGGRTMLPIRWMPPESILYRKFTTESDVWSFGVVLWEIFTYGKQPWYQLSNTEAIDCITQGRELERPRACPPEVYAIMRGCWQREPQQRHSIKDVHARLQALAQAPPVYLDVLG
T1 sequence (Q16288 32-839): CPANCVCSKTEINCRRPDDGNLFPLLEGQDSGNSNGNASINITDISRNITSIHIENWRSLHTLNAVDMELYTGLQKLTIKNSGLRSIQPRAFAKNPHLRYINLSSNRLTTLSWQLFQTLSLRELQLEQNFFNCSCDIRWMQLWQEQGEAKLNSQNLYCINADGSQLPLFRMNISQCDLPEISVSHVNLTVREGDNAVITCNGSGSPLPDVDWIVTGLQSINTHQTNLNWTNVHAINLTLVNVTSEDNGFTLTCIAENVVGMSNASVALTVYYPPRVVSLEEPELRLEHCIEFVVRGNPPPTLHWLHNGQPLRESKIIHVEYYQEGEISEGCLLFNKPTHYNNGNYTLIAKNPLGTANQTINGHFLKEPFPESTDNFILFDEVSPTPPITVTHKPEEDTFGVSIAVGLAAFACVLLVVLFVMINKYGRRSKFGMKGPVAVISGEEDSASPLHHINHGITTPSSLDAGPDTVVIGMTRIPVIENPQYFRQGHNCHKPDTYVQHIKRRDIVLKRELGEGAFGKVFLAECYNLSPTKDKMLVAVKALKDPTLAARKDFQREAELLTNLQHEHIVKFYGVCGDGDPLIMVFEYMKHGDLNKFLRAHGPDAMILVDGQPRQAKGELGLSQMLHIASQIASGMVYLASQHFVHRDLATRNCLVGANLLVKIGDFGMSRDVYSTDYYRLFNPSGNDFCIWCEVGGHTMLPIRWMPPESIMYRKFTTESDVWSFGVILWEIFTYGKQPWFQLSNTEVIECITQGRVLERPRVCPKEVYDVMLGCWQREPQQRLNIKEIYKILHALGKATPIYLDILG

SMILES	pIC50 [1]	pIC50 [2]	pIC50 [3]
CSc1cc(F)cc([C@H]2C[C@H](F)CN2c2ccc3ncc(C(=O)N[C@H]4CCN(Cc5cccc(OC(C)=O)c5)C4)n3n2)c1 [Example 28, 3-{[(3S)-3-{6-[(2R,4S)-4-fluoro-2-[3-fluoro-5-(methylsulfanyl)phenyl]pyrrolidin-1-yl]imidazo[1,2-b]pyridazine-3-amido}pyrrolidin-1-yl]methyl}phenyl Acetate]	8.31	8.33	8.25
CSc1cc(F)cc([C@H]2C[C@H](F)CN2c2ccc3ncc(C(=O)N[C@H]4CCN(Cc5cccc(C(=O)O)c5)C4)n3n2)c1 [Example 29, 3-{[(3S)-3-{6-[(2R,4S)-4-fluoro-2-[3-fluoro-5-(methylsulfanyl)phenyl]pyrrolidin-1-yl]imidazo[1,2-b]pyridazine-3-amido}pyrrolidin-1-yl]methyl}benzoic Acid]	8.40	8.23	8.27
CCCCOC(=O)c1cccc(CN2CC[C@H](NC(=O)c3cnc4ccc(N5C[C@@H](F)C[C@@H]5c5cc(F)ccc5SC)nn34)C2)c1 [Example 12, Butyl 3-{[(3S)-3-{6-[(2R,4S)-4-fluoro-2-[5-fluoro-2-(methylsulfanyl)phenyl]pyrrolidin-1-yl]imidazo[1,2-b]pyridazine-3-amido}pyrrolidin-1-yl]methyl}benzoate]	7.96	8.42	7.99
CSc1cc(F)cc([C@H]2C[C@H](F)CN2c2ccc3ncc(C(=O)N[C@H]4CCN(Cc5cccc(O)c5)C4)n3n2)c1 [Example 17, 6-[(2R,4S)-4-fluoro-2-[3-fluoro-5-(methylsulfanyl)phenyl]pyrrolidin-1-yl]-N-[(3S)-1-[(3-hydroxyphenyl)methyl]pyrrolidin-3-yl]imidazo[1,2-b]pyridazine-3-carboxamide]	8.34	8.62	8.30

Stronger by pIC50 [1], values ahead:

pIC50 [1]	pIC50 [2]	pIC50 [3]	SMILES
8.81	8.83	9.09	CSc1ccc(F)cc1[C@H]1C[C@H](F)CN1c1ccc2ncc(C(=O)NC3CCN(Cc4ccc(F)c(O)c4)CC3)n2n1 [Example 6, 6-[(2R,4S)-4-fluoro-2-[5-fluoro-2-(methylsulfanyl)phenyl]pyrrolidin-1-yl]-N-{1-[(4-fluoro-3-hydroxyphenyl)methyl]piperidin-4-yl}imidazo[1,2-b]pyridazine-3-carboxamide]
8.43	8.57	8.42	CSc1cc(F)cc([C@H]2C[C@H](F)CN2c2ccc3ncc(C(=O)NC4CN(Cc5cccc(O)c5)C4)n3n2)c1 [Example 20, 6-[(2R,4S)-4-fluoro-2-[3-fluoro-5-(methylsulfanyl)phenyl]pyrrolidin-1-yl]-N-{1-[(3-hydroxyphenyl)methyl]azetidin-3-yl}imidazo[1,2-b]pyridazine-3-carboxamide]
8.79	9.10	8.82	CSc1ccc(F)cc1[C@H]1C[C@H](F)CN1c1ccc2ncc(C(=O)N[C@H]3CCN(Cc4cccc(O)c4)C3)n2n1 [Example 8, 6-[(2R,4S)-4-fluoro-2-[5-fluoro-2-(methylsulfanyl)phenyl]pyrrolidin-1-yl]-N-[(3S)-1-[(3-hydroxyphenyl)methyl]pyrrolidin-3-yl]imidazo[1,2-b]pyridazine-3-carboxamide]
8.68	8.72	8.92	CSc1ccc(F)cc1[C@H]1C[C@H](F)CN1c1ccc2ncc(C(=O)NC3CN(Cc4cccc(O)c4)C3)n2n1 [Example 5, 6-[(2R,4S)-4-fluoro-2-[5-fluoro-2-(methylsulfanyl)phenyl]pyrrolidin-1-yl]-N-{1-[(3-hydroxyphenyl)methyl]azetidin-3-yl}imidazo[1,2-b]pyridazine-3-carboxamide]
8.47	8.75	8.48	CSc1ccc(F)cc1[C@H]1CCCN1c1ccc2ncc(C(=O)N[C@H]3CCN(Cc4ccc(F)c(O)c4)C3)n2n1 [Example 2, 6-[(2R)-2-[5-fluoro-2-(methylsulfanyl)phenyl]pyrrolidin-1-yl]-N-[(3S)-1-[(4-fluoro-3-hydroxyphenyl)methyl]pyrrolidin-3-yl]imidazo[1,2-b]pyridazine-3-carboxamide]
